Experimental data from patent US20250074946A1, “USE OF SE-DR AFFINITY PEPTIDE IN PREPARING DRUG FOR TREATING RHEUMATIC DISEASE” (HEBEI FITNESS BIOTECHNOLOGY CO., LTD., priority 2021, published 2025).
Where a SMILES comes first, the peptide text is derived from it. Where no end group is shown, it is not given here.

Key:
[1] = test system: immune system of healthy rats; assay: Immune indicators of SD rats after one month of administration (Example 4); type: in vivo, rat; details: once a day for 4 weeks, end of administration
Method: SD rats were used to investigate the effects of the SE-DR affinity peptides on the immune indicators of the rats after continuous administration for one month. […] At the end of administration, analysis was conducted on the serum anti-FNS007 antibodies, different types of serum immunoglobulins, the serum complement, the peripheral blood T lymphocyte and the serum cytokines.

[2] = test system: CIA mice infected with chronic hepatitis B; assay: CIA mice infected with chronic hepatitis B (Example 8); type: in vivo, mouse
Method: Establishment of chronic hepatitis B model in mice: DBA/1 mice were injected with Raav8-1. 3 HBV (1×10^12 vg/mL) via tail vein to establish HBV chronic hepatitis B model.
DBA/1 mice infected with chronic hepatitis B were used to establish CIA model with chronic hepatitis B infection. Methods: Two days after the mice were injected with Raav8-1.3 HBV (1×10^12 vg/mL) via tail vein, the emulsion of bovine C II and CFA (containing 100 μg collagen) was intradermally injected into the tail head of the mice for immunization. After 21 days, the mice were boosted once by intraperitoneal injection of the emulsion (containing 100 μg collagen) prepared by bovine C II and IFA. Thereafter, the morphological changes of the four paws of the mice were examined every day, and the mice were randomly assigned to the treatment group at inflammation score of 1. […] Another 10 mice with latent hepatitis B infection were not subjected to model establishment and set as the control group. PBS was administrated to both the model group and the control group. The mice in each group were given the corresponding drugs by tail intravenous injection at the volume of 10 ml/kg, once every other day, for 27 consecutive days. The mice were sacrificed on day 28 after administration. The inflammation scores of the four paws of the mice in each group were evaluated during the administration. The serological indicators for virus injection and liver function of the mice were detected on the day of booster immunization (22 days after tail vein injection) and at the time of sacrifice.

[3] = test system: immune system of healthy monkeys; assay: Immune indicators of cynomolgus monkeys after one month of administration (Example 5); type: in vivo, cynomolgus monkey; details: once a day for 4 weeks, end of administration
From the text: Cynomolgus monkeys were used to investigate the effects of the SE-DR affinity peptide on the immune indicators of cynomolgus monkeys after continuous administration for one month. […] At the end of administration, the immune indicators, including the serum anti-FNS007 antibodies, the immunoglobulins of different serotypes, the serum complement, the peripheral blood T lymphocyte and the serum cytokines, were observed.

[4] = test system: CIA rats with latent tuberculosis infection
PBMC = PBMC stimulation test, IL-6 in supernatant by ELISA; type: cell-based, human; details: PBMC 1×10^6 cell/ml, peptide 10 μg/ml, 5 days of culture
From the text: The SE-DR molecule is directly related to the pathogenesis of RA. It can present RA-related autoantigens in vivo, such as type II collagen (CII), heat shock protein 60 (Hsp60), cartilage glycoprotein (HCgp-39) and so on, and further activate autoreactive T cells, leading to the occurrence of rheumatoid arthritis. An important strategy for the treatment of RA is to use competitive inhibition to block the activation of autoreactive T cells by autoantigen peptides. […] Based on the above principles, we have designed and synthesized a series of altered peptide ligands, and screened for their affinity to SE-DR and for the activation ability on the peripheral blood T cells in RA patients. The specific steps and results are shown in Example 1 and Example 2.
3 mL ficoll was added to a 15 mL centrifuge tube, and 4 mL blood sample was then applied on the surface of ficoll. The tube was centrifuged at 400 g at 18-20° C. for 30-40 min. The upper layer of plasma was aspirated with a Pasteur pipette, and the PBMC layer (approximately 2 mL) was aspirated, and added to a 14 mL centrifuge tube previously filled with at least 3 volumes (6 mL) of PBS. The mixture was gently resuspended. The tube was centrifuged at 60-100 g for 10 min at 18-20° C. After centrifugation, the supernatant was removed with a Pasteur pipette, and the resulting cell mass was resuspended in 6-8 mL PBS and centrifuged at 18-20° C. for 10 min at 60-100 g to remove the supernatant. The cells were resuspended in an appropriate amount of 1640 complete medium and diluted to 1×10^6 cell/ml after cell counting. The diluted cell suspension was added to a 96-well plate. The positive control, allosteric peptide, was added to 100 μl cell culture to a final concentration of 10 μg/ml. The mixture was replenished to 200 μL with 1640 complete medium. After 5 days of culture, the supernatant was aspirated, centrifuged at 3000 rpm for 5 minutes, and the level of IL-6 in the supernatant was detected by ELISA.

CC(C)C[C@H](NC(=O)CNC(=O)[C@H](CCCNC(N)=O)NC(=O)[C@H](C)NC(=O)[C@@H]1CCCN1C(=O)[C@@H]1CCCN1C(=O)[C@@H]1CCCN1C(=O)[C@H](C)NC(=O)[C@@H]1CCCN1C(=O)[C@H](CCCNC(N)=O)NC(=O)[C@H](CO)NC(=O)[C@H](CCCNC(=N)N)NC(=O)CNC(=O)[C@H](CCCNC(N)=O)NC(=O)[C@@H](NC(=O)[C@H](CO)NC(=O)[C@H](CCC(=O)O)NC(=O)[C@@H](NC(=O)[C@H](CO)NC(=O)[C@H](CO)NC(=O)[C@H](CCCNC(N)=O)NC(=O)[C@H](CC(C)C)NC(=O)[C@H](CCCNC(N)=O)NC(=O)[C@@H](N)C(C)C)C(C)C)[C@@H](C)O)C(=O)N[C@H](C(=O)O)[C@@H](C)O [APL37, VCitLCitSSVESTCitGRSCitPAPPPACitGLT]
CD3% [1]: 38.29 ± 11.34% | CD4% [1]: 19.25 ± 7.84% | CD8% [1]: 18.33 ± 6.15% | IFN-γ [1]: 2.44 ± 0.31 pg/mL | IL-2 [1]: 3.28 ± 2.59 pg/mL | IL-4 [1]: 1.77 ± 0.85 pg/mL | TNF-α [1]: 4.96 ± 2.01 pg/mL | ALT level ([2]; at sacrifice, day 28): 47.37 ± 21.13 U/L | Observation on the daily condition of mice ([2]; during administration): No abnormality | CD3% [3]: 64.55 ± 17.31% | CD4% [3]: 28.84 ± 9.35% | CD8% [3]: 27.61 ± 9.99% | IFN-γ [3]: 5.11 ± 0.54 pg/mL | IL-2 [3]: 4.46 ± 0.44 pg/mL | IL-4 [3]: 2.18 ± 0.29 pg/mL | TNF-α [3]: 2.51 ± 0.41 pg/mL | Observation on the daily condition of rats ([4]; during administration): No abnormality | Tuberculosis recurrence rate ([4]; peptides 0.2 mmol, adalimumab 1 mg/kg, 21 days): 0% | Culture of MTB from lungs and spleens of rats at sacrifice ([4]; sacrifice on day 22, peptides 0.2 mmol, adalimumab 1 mg/kg): Negative

YVAQNTLKLA [APL5]
IL-6 levels in the supernatant (PBMC): 8.7 ng/mL

CC(C)C[C@H](NC(=O)[C@H](CC(C)C)NC(=O)[C@@H](NC(=O)[C@@H](N)C(C)C)C(C)C)C(=O)N[C@H](C(=O)N[C@@H](C)C(=O)N[C@H](C(=O)N[C@@H](CCC(=O)O)C(=O)NCC(=O)N[C@@H](CCCNC(N)=O)C(=O)N[C@H](C(=O)N[C@@H](CCCNC(=N)N)C(=O)N[C@H](C(=O)N[C@@H](C)C(=O)N[C@@H](CO)C(=O)N[C@@H](C)C(=O)N[C@@H](Cc1ccc(O)cc1)C(=O)N[C@@H](CCC(N)=O)C(=O)N[C@@H](CC(=O)O)C(=O)N[C@@H](CCCCN)C(=O)O)C(C)C)C(C)C)[C@@H](C)O)C(C)C [APL36]
IL-6 levels in the supernatant (PBMC): 6.8 ng/mL

CC(C)C[C@H](NC(=O)[C@H](CCCNC(N)=O)NC(=O)[C@@H](NC(=O)[C@H](C)NC(=O)[C@H](CO)NC(=O)[C@H](CO)NC(=O)[C@H](CCCNC(N)=O)NC(=O)[C@@H](NC(=O)[C@H](C)NC(=O)[C@H](Cc1ccc(O)cc1)NC(=O)[C@@H](NC(=O)CN)C(C)C)[C@@H](C)O)C(C)C)C(=O)N[C@@H](CCCNC(N)=O)C(=O)O [APL34, GVYATCitSSAACitLCit]
IL-6 levels in the supernatant (PBMC): 5.2 ng/mL

CC(C)C[C@H](NC(=O)[C@H](CCCCN)NC(=O)[C@H](CC(N)=O)NC(=O)[C@H](C)NC(=O)[C@H](CCCNC(N)=O)NC(=O)[C@H](CC(N)=O)NC(=O)[C@@H](NC(=O)[C@H](Cc1ccccc1)NC(=O)[C@H](CC(=O)O)NC(=O)[C@@H](N)CCC(N)=O)[C@@H](C)O)C(=O)N[C@@H](CCCCN)C(=O)N[C@@H](CC(N)=O)C(=O)N[C@@H](CO)C(=O)O [APL35, QDFTNCitANKLKNS]
IL-6 levels in the supernatant (PBMC): 20.8 ng/mL

C[C@H](NC(=O)CNC(=O)CNC(=O)[C@H](CCC(N)=O)NC(=O)[C@H](CCC(=O)O)NC(=O)CNC(=O)[C@H](CCCCN)NC(=O)[C@@H](N)Cc1ccccc1)C(=O)NCC(=O)N[C@@H](CCC(=O)O)C(=O)O [APL1]
IL-6 levels in the supernatant (PBMC): 18.9 ng/mL

CC(C)C[C@H](NC(=O)[C@@H](NC(=O)[C@H](Cc1ccccc1)NC(=O)[C@H](CO)NC(=O)[C@@H](N)CCCNC(=N)N)[C@@H](C)O)C(=O)N[C@@H](CC(=O)O)C(=O)NCC(=O)N[C@@H](CO)C(=O)N[C@@H](CCC(=O)O)C(=O)N[C@H](C(=O)NCC(=O)N[C@H](C(=O)NCC(=O)O)C(C)C)[C@@H](C)O [APL19]
IL-6 levels in the supernatant (PBMC): 15.8 ng/mL

YAKQATLKLA [APL6]
IL-6 levels in the supernatant (PBMC): 6.5 ng/mL

CC(C)C[C@H](NC(=O)[C@H](CCCNC(=N)N)NC(=O)[C@@H](NC(=O)[C@H](C)NC(=O)[C@@H](N)CO)C(C)C)C(=O)N[C@@H](CCCNC(N)=O)C(=O)N[C@@H](CCCNC(=N)N)C(=O)N[C@@H](CO)C(=O)N[C@H](C(=O)N1CCC[C@H]1C(=O)NCC(=O)N[C@H](C(=O)N[C@@H](CCCNC(=N)N)C(=O)O)C(C)C)C(C)C [APL26, SAVRLCitRSVPGVR]
IL-6 levels in the supernatant (PBMC): 7 ng/mL

CC(C)C[C@H](NC(=O)[C@@H](NC(=O)[C@H](Cc1ccccc1)NC(=O)[C@H](CO)NC(=O)[C@@H](N)CCCNC(=N)N)[C@@H](C)O)C(=O)N[C@@H](CC(=O)O)C(=O)N[C@@H](CO)C(=O)N[C@@H](CO)C(=O)N[C@@H](CCC(=O)O)C(=O)N[C@H](C(=O)NCC(=O)N[C@H](C(=O)NCC(=O)O)C(C)C)[C@@H](C)O [APL15]
IL-6 levels in the supernatant (PBMC): 8.7 ng/mL

RSFTLASSATGVG [APL17]
IL-6 levels in the supernatant (PBMC): 5.4 ng/mL

RSFTLAASETGVG [APL16]
IL-6 levels in the supernatant (PBMC): 6.8 ng/mL

CC(C)C[C@H](NC(=O)[C@H](C)NC(=O)[C@@H](NC(=O)[C@H](C)NC(=O)[C@@H](N)CO)C(C)C)C(=O)N[C@@H](CCCNC(N)=O)C(=O)N[C@@H](CO)C(=O)N[C@@H](CO)C(=O)N[C@H](C(=O)N1CCC[C@H]1C(=O)NCC(=O)N[C@H](C(=O)N[C@@H](CCCNC(=N)N)C(=O)O)C(C)C)C(C)C [APL24, SAVALCitSSVPGVR]
IL-6 levels in the supernatant (PBMC): 6.6 ng/mL

CC[C@H](C)[C@H](N)C(=O)N[C@@H](Cc1c[nH]c2ccccc12)C(=O)N[C@@H](Cc1ccc(O)cc1)C(=O)N[C@H](C(=O)N[C@H](C(=O)N[C@@H](CS)C(=O)N[C@@H](Cc1ccccc1)C(=O)NCC(=O)N[C@@H](CS)C(=O)N[C@@H](CCC(=O)O)C(=O)N[C@H](C(=O)N[C@@H](Cc1c[nH]cn1)C(=O)N[C@@H](C)C(=O)N[C@@H](CCSC)C(=O)N[C@@H](CC(C)C)C(=O)O)[C@@H](C)O)[C@@H](C)O)[C@@H](C)CC [APL10] (H-IWYITCFGCETHAML-OH; N-terminus and C-terminus assumed)
IL-6 levels in the supernatant (PBMC): 4.9 ng/mL
